Consider two compounds from paper PMC5866837, “Towards a generic physiologically based kinetic model to predict in vivo uterotrophic responses in rats by reverse dosimetry of in vitro estrogenicity data” (Archives of Toxicology, 2017).

Structures are written as SMILES. Read-outs that look alike come from different tables or passages of the source.

Data set [1] in a line: Substrate depletion approach, in vitro clearance (CLint) with rat liver S9. The data set is classed as in vitro ADME. As to conditions: for microsomal CLint at 3 µM / CLint in liver S9 at 3 µM: Sprague-Dawley, rat, liver S9 fraction; for CLint in liver S9 at 3 µM: 3 µM substrate. The source says: To develop a generic model, a fast and efficient approach needs to be applied to determine the hepatic clearance. To this end, a substrate depletion approach was used, as described by others (Jones and Houston [2004]; Obach [1999]; Obach and Reed-Hagen [2002]). Metabolic breakdown of the parent compound, referred to as “substrate depletion” is used to measure in vitro CLint of the parent compound, where the consumption rate of the parent compound using hepatic microsomes, hepatic S9 fractions or hepatocytes, is measured over a range of incubation times under linear conditions with respect to protein concentration and substrate concentration (Jones and Houston [2004]).
The CLint of the parent compounds via phase I and phase II metabolism was determined in incubations with liver S9 fraction from both male and female Sprague–Dawley rats, in the presence of all relevant co-factors NADPH, UDPGA, PAPS and acetyl CoA. To investigate whether the in vitro CLint value derived from incubations for individual reactions (with individual co-factors) is similar as the CLint value derived from incubations with all the co-factors together in one mixture, two approaches were applied. In the first approach, the parent compound was incubated with individual co-factors in Eppendorf tubes applying a final volume of 200 µL containing either 3 mM NADPH, 5 mM UDPGA (also including 5 mM MgCl2 and 0.025 mg/ml alamethicin), 0.2 mM PAPS, or 0.5 mM acetyl CoA, with 0.5 mg/ml liver S9 in 0.1 M potassium phosphate (pH 7.4) buffer. After pre-incubating the mixtures at 37 °C for 1 min, the reactions were started by adding 3 µM (final concentration) of the parent compound from a 100 times concentrated stock solution dissolved in DMSO. In the second approach, it was tested whether the methodology could be simplified by adding all the co-factors to one incubation mixture and the parent compound after pre-incubation. For both approaches, 14 time points were selected at which the reaction was terminated, being 0, 1, 2, 3, 4, 5, 7, 8.5, 10, 15, 20, 25, 30 and 45 min. To terminate the reaction 100 µL cold acetonitrile (ACN) was added to the mixture and the Eppendorf tubes were put on ice for 30 min. Subsequently, tubes were centrifuged at 15,000 rpm for 5 min (CT 15RE, Hitachi Koki Co., Ltd) and the supernatant was collected for UPLC analysis. For each incubation time point, a corresponding control was included, which was an incubation performed in the absence of co-factor(s). All incubations were performed in triplicate in three independent studies.
The concentration of the parent compound was quantified for all the incubations using UPLC analysis performed as described below. The ratio of remaining parent compound concentration between incubation sample (C compound) and the control without co-factor (C control) was calculated for each incubation time. Subsequently, the depletion curve of the parent compound [ln(C compound/C control)] against time was derived as described before (Jones and Houston [2004]; Obach [1999]; Obach and Reed-Hagen [2002]). The slope of the linear part of the depletion curve represents the elimination rate constant (k, min^−1) for elimination of the parent compound. Using the following equation, the in vitro clearance (CLint, in vitro) of the parent compound can be estimated: CLint, in vitro (µL/min/mg protein) = V (µL)/P (mg) × k (min^−1) (Obach [1999]; Sjögren et al. [2009]). V represents volume (µL) of incubation mixture and P is the protein amount (mg) in the mixture. The in vitro CLint value derived from incubations with all co-factors together in one mixture (approach 2) was compared with the sum of the CLint values derived from incubations with a single co-factor (approach 1). The in vitro CLint of the parent compound was scaled to a whole liver, assuming that the S9 protein concentration in the rat liver is 87 g/kg liver (Chiu and Ginsberg [2011]).
For BPA, the analytical method was slightly changed based on the method for E2. […]

The subject of a further data set is Caco-2. As to conditions: cited from earlier work.
Where [2] appears, read: female, pH 7.4, female Sprague–Dawley rat liver S9, all co-factors (NADPH, UDPGA, PAPS, acetyl CoA) in one mixture, read-out: Female CLint.
Where [3] appears, read: male, pH 7.4, male Sprague–Dawley rat liver S9, all co-factors (NADPH, UDPGA, PAPS, acetyl CoA) in one mixture, read-out: Male CLint.
[4] abbreviates: male, pH 7.4, male Sprague–Dawley rat liver S9, individual co-factor NADPH.
Setting [5] is: male, pH 7.4, male Sprague–Dawley rat liver S9, individual co-factor PAPS.
The mark [6] stands for this setting: male, pH 7.4, male Sprague–Dawley rat liver S9, individual co-factor UDPGA.
Where [7] appears, read: male, pH 7.4, male Sprague–Dawley rat liver S9, read-out: CLint, SUM of incubations with individual co-factors.

As for `CC(C)(c1ccc(O)cc1)c1ccc(O)cc1` [BPA, bisphenol A], in data set [1] (all co-factors in one mixture), the “CLint fold higher for female than for male rat liver S9” value is on record as 1.1 fold. For the same compound, the microsomal CLint at 3 µM in data set [1] (setting [2]) was 432 ± 12.5 µL/min/mg; in data set [1] (setting [3]), 392 ± 6.7 µL/min/mg; in data set [1] (setting [7]), 403 ± 9.4 µL/min/mg. Besides, the CLint in liver S9 at 3 µM in data set [1] (setting [4]) is 60 ± 4.8 µL/min/mg; in data set [1] (setting [5]), 3.4 ± 2.1 µL/min/mg; in data set [1] (setting [6]), 340 ± 7.8 µL/min/mg. In addition, the “Papp, Caco-2” value with Caco-2 (PBK model code, ref Yoshkawa et al. 2002) was 20 x1E-6 cm/sec. The “P app, Caco-2” value with Caco-2 (ref Yoshikawa et al. [2002]) is 20 ×10⁻⁶ cm/s.
Take `C[C@]12CC[C@@H]3c4ccc(O)cc4CC[C@H]3[C@@H]1CC[C@@H]2O` [E2, 17β-estradiol]: the “Female CLint” value in data set [1] (female Sprague–Dawley rat liver S9, all co-factors (NADPH, UDPGA, PAPS, acetyl CoA) in one mixture) is 65.5 ± 12.3 µl/min/mg protein. The results for the microsomal CLint at 3 µM in data set [1] (setting [2]), in data set [1] (setting [3]) and in data set [1] (setting [7]) were 65.5 µL/min/mg, 175 ± 13.3 µL/min/mg and 182 ± 26.8 µL/min/mg, respectively. In addition, the results for the CLint in liver S9 at 3 µM in data set [1] (setting [4]), in data set [1] (setting [5]) and in data set [1] (setting [6]) were 155 ± 26.7 µL/min/mg, 4.4 ± 1.6 µL/min/mg and 23.3 ± 0.9 µL/min/mg, respectively.
